By viability is commonly meant a read-out of living cells in per cent, often relative to untreated cells.

For this assay, the system named is PC12 cells. Put plainly: Etoposide-induced apoptosis in PC12 cells, cell viability. The settings on record: Rattus norvegicus, PC-12, etoposide-induced apoptosis, PC12 cells; for viability at 0.1 µM: 0.1 μM compound, vehicle 52.1 ± 7.32; for viability at 0.3 µM: 0.3 μM compound; for viability at 1 µM: 1 μM compound, read-out: % Viability 1 μM; for viability at 3 µM: 3 μM compound, read-out: % Viability 3 μM; for viability at 10 µM: 10 μM compound, read-out: % Viability 10 μM; for viability at 30 µM: 30 μM compound, read-out: % Viability 30 μM. Format: cell-based.

As for `CCOC(=O)Nc1ccc(NCc2ccccc2)nc1N` [AM-2-3, Ethyl (2-amino-6-(benzylamino)pyridin-3-yl)carbamate], the viability at 0.1 µM was determined as 83.2 ± 21.9%, the viability at 0.3 µM was 87.5 ± 1.65%, the viability at 1 µM stood at 93.5 ± 5.31% and the viability at 3 µM was 78.6 ± 10.8%. Further, the viability at 10 µM amounted to 92.2 ± 3.97% and the viability at 30 µM was found to be 88.8 ± 5.02%.
Turning to `CCOC(=O)Nc1ccc(NCc2ccc(OC)cc2)nc1N` [AM-4-3, Ethyl (2-amino-6-((4-methoxybenzyl)amino)pyridin-3-yl)carbamate], the viability at 0.1 µM was 86.8 ± 3.14%, the viability at 0.3 µM came out at 81.4 ± 13%, the viability at 1 µM came to 71.8 ± 25.7% and the viability at 3 µM amounted to 79.7 ± 10.6%. The viability at 10 µM was 90 ± 16.3% and the viability at 30 µM worked out at 106 ± 13.3%.
For the compound `CCOC(=O)Nc1ccc(NCc2ccc3ccccc3c2)nc1N` [AM-5-3, Ethyl (2-amino-6-((naphthalen-2-ylmethyl)amino)pyridin-3-yl)carbamate], the viability at 0.1 µM came to 70.5 ± 24.2%, the viability at 0.3 µM is 76.9 ± 20.8%, the viability at 1 µM stood at 81.7 ± 12.6% and the viability at 3 µM came out at 57.6 ± 6.35%. The viability at 10 µM turned out to be 65.1 ± 22.6% and the viability at 30 µM came out at 103 ± 1.31%.
Turning to `CCOC(=O)Nc1ccc(NCc2ccc(SC(F)(F)F)cc2)nc1N` [AM-8-3, Ethyl (2-amino-6-((4-((trifluoromethyl)thio)benzyl)amino)pyridin-3-yl)carbamate], the viability at 0.1 µM was 69 ± 9.99%, the viability at 0.3 µM was 92.6 ± 9.23%, the viability at 1 µM was found to be 82.3 ± 7.02% and the viability at 3 µM was 79.2 ± 23.6%. In addition, the viability at 10 µM amounted to 89.1 ± 2.16% and the viability at 30 µM is 110 ± 15.3%.
`CCOC(=O)Nc1ccc(NCc2ccc(-c3cccs3)cc2)nc1N` [AM-11-3, Ethyl (2-amino-6-((4-(thiophen-2-yl)benzyl)amino)pyridin-3-yl)carbamate]: the viability at 0.1 µM turned out to be 64.1 ± 16.6%, the viability at 0.3 µM worked out at 77.1 ± 25.2%, the viability at 1 µM is 89.8 ± 30.1% and the viability at 3 µM came to 76.1 ± 12.8%. For the same compound, the viability at 10 µM is 89 ± 29.1% and the viability at 30 µM was found to be 35.3 ± 5.69%.
For the compound `CCOC(=O)Nc1ccc(NCc2ccc(C(F)(F)F)cc2)nc1` [AM-15-3, Ethyl (6-((4-(trifluoromethyl)benzyl)amino)pyridin-3-yl)carbamate], the viability at 0.1 µM is 59.7 ± 6.74%, the viability at 0.3 µM came out at 54.1 ± 12.7%, the viability at 1 µM was 59 ± 12.9% and the viability at 3 µM is 64 ± 7.87%. The viability at 10 µM was found to be 66.4 ± 4.11% and the viability at 30 µM amounted to 52.9 ± 8.69%.
As for `CCOC(=O)Nc1ccc(NCc2ccc(OC(F)(F)F)cc2)nc1N` [JG-33-4, Ethyl (2-amino-6-((4-(trifluoromethoxy)benzyl)amino)pyridin-3-yl)carbamate], the viability at 0.1 µM turned out to be 71.3 ± 16.1%, the viability at 0.3 µM was 81.6 ± 10.9%, the viability at 1 µM was determined as 79.8 ± 12.8% and the viability at 3 µM came out at 95.3 ± 14.6%. The viability at 10 µM turned out to be 88.9 ± 12.6% and the viability at 30 µM is 82.4 ± 12.6%.
As to `CCOC(=O)Nc1ccc(NCc2ccccc2C(F)(F)F)nc1N` [JG-34-4, Ethyl (2-amino-6-((2-(trifluoromethyl)benzyl)amino)pyridin-3-yl)carbamate], the viability at 0.1 µM worked out at 74.6 ± 2.18%, the viability at 0.3 µM is 72.4 ± 16.4%, the viability at 1 µM is 95.1 ± 10.3% and the viability at 3 µM came out at 91.5 ± 12.9%. The viability at 10 µM was 95.4 ± 19.3% and the viability at 30 µM came to 77.7 ± 6.86%.
`Nc1nc(NCc2ccccc2C(F)(F)F)ccc1NC(=O)OCC(Cl)(Cl)Cl` [JG-35-4, 2,2,2-trichloroethyl (2-amino-6-((2-(trifluoromethyl)benzyl)amino)pyridin-3-yl)carbamate]: the viability at 1 µM was 92.2 ± 37.2%, the viability at 3 µM stood at 108 ± 7.32%, the viability at 10 µM is 93.2 ± 21.6% and the viability at 30 µM was 71.6 ± 20.8%.
Consider `CCOC(=O)Nc1ccc(NCCc2ccccc2)nc1N` [JG-36-4, Ethyl (2-amino-6-(phenethylamino)pyridin-3-yl)carbamate], for which the viability at 0.1 µM was found to be 52.1 ± 11.5%, the viability at 0.3 µM came out at 56.9 ± 12%, the viability at 1 µM stood at 69.2 ± 7.1% and the viability at 3 µM came out at 50 ± 9.09%. The viability at 10 µM came to 59.6 ± 9.05% and the viability at 30 µM worked out at 60.5 ± 5.82%.
Regarding `CCOC(=O)Nc1ccc(NCc2cc(F)cc(C(F)(F)F)c2)nc1N` [JG-38-4, Ethyl (2-amino-6-((3-fluoro-5-(trifluoromethyl)benzyl)amino)pyridin-3-yl)carbamate], the viability at 0.1 µM stood at 69 ± 13.6%, the viability at 0.3 µM was 64.7 ± 12.5%, the viability at 1 µM is 69.7 ± 14.9% and the viability at 3 µM is 72.9 ± 13.2%. For the same compound, the viability at 10 µM is 90.1 ± 15.1% and the viability at 30 µM was found to be 78.2 ± 12.5%.
Consider `CCOC(=O)Nc1ccc(N2CCOCC2)nc1N` [JG-41-4, Ethyl (2-amino-6-morpholinopyridin-3-yl)carbamate], for which the viability at 1 µM was found to be 85.8 ± 15.5%, the viability at 3 µM stood at 88.7 ± 13.5%, the viability at 10 µM amounted to 78.9 ± 14.3% and the viability at 30 µM was found to be 63.9 ± 12.4%.
On to `Cc1ccc(OC(=O)Nc2ccc(NCc3ccc(F)cc3)cc2N)cc1` [JG-48-6, p-tolyl (2-amino-4-((4-fluorobenzyl)amino)phenyl)carbamate], for which the viability at 1 µM is 70 ± 16.1%, the viability at 3 µM amounted to 91.6 ± 11%, the viability at 10 µM came to 83.7 ± 2.26% and the viability at 30 µM amounted to 67.5 ± 10.2%.
On to `CC(C)(C)OC(=O)Nc1ccc(NCc2ccc(F)cc2)nc1N` [NK-13-1, tert-butyl 6-(4-fluorobenzylamino)-2-aminopyridin-3-ylcarbamate], for which the viability at 0.1 µM came out at 53.5 ± 9.17%, the viability at 0.3 µM turned out to be 47.6 ± 3.19%, the viability at 1 µM worked out at 57.2 ± 13.6% and the viability at 3 µM turned out to be 42.2 ± 6.03%. Moreover, the viability at 10 µM worked out at 68.1 ± 21.6% and the viability at 30 µM came to 64.4 ± 12.8%.
Regarding `CCOC(=O)Nc1ccc(NCc2ccc(F)cc2)nc1` [NK-31-3], the viability at 1 µM was found to be 109 ± 35.9%, the viability at 3 µM was 110 ± 19.4%, the viability at 10 µM was determined as 101 ± 15.9% and the viability at 30 µM was 69.3 ± 14.9%.
As to `CCCCCCOC(=O)Nc1ccc(NCc2ccc(F)cc2)cc1N` [NK-34-2, Hexyl (2-amino-4-((4-fluorobenzyl)amino)phenyl)carbamate], the viability at 0.1 µM was determined as 63 ± 11.8%, the viability at 0.3 µM was determined as 61 ± 5.7%, the viability at 1 µM was 65.8 ± 6.14% and the viability at 3 µM was 60.1 ± 11.4%. For the same compound, the viability at 10 µM was 72.1 ± 13.4% and the viability at 30 µM is 73.2 ± 4.74%.
Consider `Nc1nc(NCc2ccc(F)cc2)ccc1NC(=O)Oc1ccccc1` [NK-41-1, Phenyl (2-amino-6-((4-fluorobenzyl)amino)pyridin-3-yl)carbamate], for which the viability at 0.1 µM was 57.5 ± 3.62%, the viability at 0.3 µM is 53.4 ± 0.8%, the viability at 1 µM was 58.1 ± 2.08% and the viability at 3 µM was 59 ± 6.87%. Further, the viability at 10 µM came out at 68.9 ± 7.71% and the viability at 30 µM came out at 70.3 ± 10.6%.
Consider `Nc1nc(NCc2ccc(F)cc2)ccc1NC(=O)OCC1c2ccccc2-c2ccccc21` [NK-43-1, (9H-fluoren-9-yl)methyl (2-amino-6-((4-fluorobenzyl)amino)pyridin-3-yl)carbamate], for which the viability at 0.1 µM turned out to be 67.5 ± 6.34%, the viability at 0.3 µM turned out to be 63.9 ± 6.2%, the viability at 1 µM was determined as 69 ± 10.3% and the viability at 3 µM is 56.4 ± 8.99%. Besides, the viability at 10 µM was determined as 66.7 ± 5.97% and the viability at 30 µM is 49.7 ± 1.76%.
For the compound `C#CCOC(=O)Nc1ccc(NCc2ccc(F)cc2)nc1N` [NK-45-1, Prop-2-yn-1-yl (2-amino-6-((4-fluorobenzyl)amino)pyridin-3-yl)carbamate], the viability at 0.1 µM stood at 60.4 ± 1.29%, the viability at 0.3 µM was found to be 57.5 ± 3.95%, the viability at 1 µM turned out to be 64.9 ± 11.7% and the viability at 3 µM was found to be 61.9 ± 9.82%. In addition, the viability at 10 µM was 65.4 ± 10.7% and the viability at 30 µM came out at 64.8 ± 3.9%.
`Nc1nc(NCc2ccc(F)cc2)ccc1NC(=O)OCC(Cl)(Cl)Cl` [NK-46-1, 2,2,2-trichloroethyl (2-amino-6-((4-fluorobenzyl)amino)pyridin-3-yl)carbamate]: the viability at 0.1 µM was found to be 74.1 ± 9.21%, the viability at 0.3 µM worked out at 108 ± 12.7%, the viability at 1 µM came to 94.9 ± 8.18% and the viability at 3 µM worked out at 77.2 ± 8.19%. For the same compound, the viability at 10 µM amounted to 83.9 ± 18% and the viability at 30 µM came to 113 ± 3.53%.
In the case of `CCOC(=O)Nc1ccc(NC(C)c2ccccc2)nc1N` (stereo not shown) [NK-52-3, Ethyl (2-amino-6-((1-phenylethyl)amino)pyridin-3-yl)carbamate], the viability at 0.1 µM worked out at 50 ± 1.04%, the viability at 0.3 µM was determined as 56 ± 4.21%, the viability at 1 µM was found to be 56.7 ± 5.69% and the viability at 3 µM turned out to be 66.2 ± 4.77%. In addition, the viability at 10 µM stood at 53.2 ± 2.3% and the viability at 30 µM stood at 24 ± 6.78%.
As to `CCOC(=O)Nc1ccc(NCc2ccc(-c3ccccc3)cc2)nc1N` [NK-57-3, Ethyl (6-(([1,1′-biphenyl]-4-ylmethyl)amino)-2-aminopyridin-3-yl)carbamate], the viability at 0.1 µM came to 55.4 ± 14.8%, the viability at 0.3 µM is 61.7 ± 12.7%, the viability at 1 µM is 63.7 ± 10.1% and the viability at 3 µM amounted to 48.9 ± 9.58%. The viability at 10 µM was determined as 53.1 ± 14% and the viability at 30 µM was found to be 62.3 ± 10.3%.
For `CCOC(=O)Nc1ccc(OCc2ccc(C(F)(F)F)cc2)nc1N` [NK-60-3, Ethyl (2-amino-6-((4-(trifluoromethyl)benzyl)oxy)pyridin-3-yl)carbamate], the viability at 0.1 µM turned out to be 64 ± 11%, the viability at 0.3 µM worked out at 83.8 ± 11.5%, the viability at 1 µM came out at 77.1 ± 7.31% and the viability at 3 µM worked out at 69.9 ± 8.54%. Further, the viability at 10 µM was found to be 71.4 ± 19.6% and the viability at 30 µM is 77 ± 6.87%.

These data come from US11369593B2 (Texas Tech University System, priority 2017, dated 2022).
